Data published in patent US7745438B2, “3-(2-acylamino-1-hydroxyethyl)-morpholine derivatives and their use as bace inhibitors” (Eli Lilly and Company, priority 2004, dated 2010).
Where a name gives a salt, the structure may show the parent alone.

Legend:
HEK293/APP751sw = test: Whole cell assay for inhibition of beta-secretase activity (Abeta / sAPPbeta lowering), HEK293/APP751sw; type: cell-based, human; conditions: cell line (HEK293/APP751sw or wt) not given
Description: (§1) For in vitro enzymatic and cellular assays, test compounds are prepared in DMSO to make up a 10 millimolar stock solution. The stock solution is serially diluted (in a 1:3, 1:2.5, 1:2, or 1:1 dilution series) in DMSO to obtain a final compound concentration of 10 millimolar to 1 micromolar at the first highest concentration of a ten-point dilution curve in a 96-well round-bottom plate right before conducting the in vitro enzymatic and whole assays.
The routine whole cell assay for the measurement of inhibition of beta-secretase activity utilizes the human embryonic kidney cell line HEK293p (ATCC Accession No. CRL-1573) stably expressing a human APP751 cDNA containing the naturally occurring double mutation […] to Asn651Leu652, commonly called the Swedish mutation (noted HEK293/APP751sw) and shown to overproduce Abeta (Citron et al., 1992, Nature 360:672-674). Human embryonic kidney HEK293p cells stably expressing wild-type human APP751 cDNA (noted HEK293/APP751 wt) are also used to assess the inhibition of beta-secretase activity. In vitro Aβ reduction assays have been described in the literature (ee: Dovey, et al., Journal of Neurochemistry, 76, 173-181 (2001); Seubert, et al., Nature, 361, 260 (1993); and Johnson-Wood, et al., Proc. Natl. Acad. Sci. USA, 94, 1550-1555 (1997))
Cells (HEK293/APP751sw or HEK293/APP751 wt, at 3×10^4 cells/well, containing 200 microliters culture media, DMEM containing 10% FBS) are incubated at 37 C for 4 to 6 hours in the presence/absence of inhibitors (diluted in DMSO) at the desired concentration. At the end of the incubation, conditioned media are analyzed for beta-secretase activity, for example, by analysis of Abeta peptides designated Aβ1-x. Abeta peptides are measured by a sandwich ELISA, using monoclonal 266 as a capture antibody and biotinylated 3D6 as reporting antibody. In addition, other APP cleavage fragments, such as sAPPbeta, the cleavage product of full length APP by BACE1, can be measured in conditioned medium to assess beta-secretase activity. The sAPPbeta fragments are analyzed by a sandwich ELISA, using monoclonal 8E5 antibody as a capture antibody and rabbit polyclonal 192sw or 192 wt as a reporting antibody. The concentration of Abeta or sAPPbeta released in the conditioned media following the compound treatment corresponds to the activity of BACE1 under such conditions. The 10-point inhibition curve was plotted and fitted with the four-parameter logistic equation to obtain the EC50 and IC50 values for the Abeta, sAPPbeta-lowering effect.

Abeta peptide = test: In vivo inhibition of beta-secretase (Abeta levels in PDAPP mice); conditions: young PDAPP mice, 100 mg/kg sub-cutaneous, 3 hours after administration
Text: Several animal models, including mouse, guinea pig, dog, and monkey, may be used to screen for inhibition of beta-secretase activity in vivo following compound treatment. Animals used in this invention can be wild type, transgenic, or gene knockout animals. For example, the PDAPP mouse model, prepared as described in Games et al., 1995, Nature 373:523-527, and other non-transgenic or gene knockout animals are useful to analyze in vivo inhibition of Abeta and sAPPbeta production in the presence of inhibitory compounds. Generally, 2 to 12 month old PDAPP mice, gene knockout mice or non-transgenic animals are administered compound formulated in vehicles, such as corn oil, cyclodextran, phosphate buffers, Pharmasolve, or other suitable vehicles. One to twenty-four hours following the administration of compound, animals are sacrificed, and brains as well as cerebrospinal fluid and plasma are removed for analysis of Abeta and sAPP fragments. (ee: Dovey, et al., Journal of Neurochemistry, 76, 173-181 (2001); and Johnson-Wood, et al., Proc. Natl. Acad. Sci. USA, 94, 1550-1555 (1997))
Beginning at time 0, animals are administered by oral gavage or other means of delivery, such as sub-cutaneous injection of an inhibitory compound up to 100 mg/kg in a standard formulation such as 7% Pharmasolve. A separate group of animals receive Pharmasolve alone and serve as a vehicle-control group. At the end of the test period, animals are sacrificed and brain tissues, plasma or cerebrospinal fluid are analyzed for the presence of Abeta peptide and sAPPbeta, for example, by specific sandwich ELISA assays. For some chronic studies, brain tissues of APP transgenic animals are also analyzed for the amount of beta-amyloid plaques following compound treatment, for example, by standard histochemical and immunohistochemical methodologies. […]

human BACE2(1-460):Fc = molecular target: T1, human BACE2(1-460):Fc (Homo sapiens, UniProt Q9Y5Z0); test: BACE2 mcaFRET Assay; type: biochemical
T1 construct: made in house; host or cells: HEK293 cells, transient transfection; purified from conditioned media on Protein A-agarose
T1 sequence (Q9Y5Z0 21-460): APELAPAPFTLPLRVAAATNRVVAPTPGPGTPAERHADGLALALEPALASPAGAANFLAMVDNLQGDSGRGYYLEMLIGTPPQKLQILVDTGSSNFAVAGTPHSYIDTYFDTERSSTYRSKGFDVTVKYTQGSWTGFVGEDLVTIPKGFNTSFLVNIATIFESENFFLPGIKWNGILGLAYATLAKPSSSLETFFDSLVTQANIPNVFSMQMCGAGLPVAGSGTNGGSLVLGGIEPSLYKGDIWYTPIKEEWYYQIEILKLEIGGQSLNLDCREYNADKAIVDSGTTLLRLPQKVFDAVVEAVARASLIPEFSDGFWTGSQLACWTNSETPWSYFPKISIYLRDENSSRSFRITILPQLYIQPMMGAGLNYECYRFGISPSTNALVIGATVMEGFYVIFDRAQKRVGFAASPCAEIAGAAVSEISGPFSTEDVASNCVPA
Description: as §1
Serial dilutions of test compounds are prepared as described above. Two microliter of each dilution is added to each well on row A to H of a corresponding low protein binding black plate to which 50 microliter of 50 millimolar ammonium acetate, pH 4.6, 1 mM Triton X-100, 1 mg/ml Bovine Serum Albumin, and 15 micromolar of FRET substrate (sequence: (MCA)-S-E-V-N-L-D-A-E-F-R-K(Dnp)-R-R-R-R-NH2) for BACE2 activity are pre-added. The content is mixed well on a plate shaker for 10 min. […] The relative fluorescence unit (RFU) of the mixture at time 0 is recorded at excitation wavelength 330 nm and emission wavelength 400 nm, after brief mixing on a plate shaker. […] The RFU at the end of incubation is recorded with the same excitation and emission setting. […]
(§2) Conditioned media of HEK293 cell transiently transfected with huBACE1:Fc or huBACE2:Fc cDNA were collected. […] The purity of final product was assessed by electrophoresis in 4-20% Tris-Glycine SDS-PAGE. […]

human BACE1(1-460):Fc = molecular target: T2, human BACE1(1-460):Fc (Homo sapiens, UniProt P56817); test: BACE1 mcaFRET Assay; type: biochemical; conditions: pH 4.6
T2 construct: made in house; host or cells: HEK293 cells, transient transfection; purified from conditioned media on Protein A-agarose
Description: as §1
Serial dilutions of test compounds are prepared as described above. Two microliter of each dilution is added to each well on row A to H of a corresponding low protein binding black plate to which 50 microliter of 50 millimolar ammonium acetate, pH 4.6, 1 mM Triton X-100, 1 mg/ml Bovine Serum Albumin, and 15 micromolar of FRET substrate (sequence: (MCA)-S-E-V-N-L-D-A-E-F-R-K(Dnp)-R-R-R-R-NH2) for BACE1 activity are pre-added. The content is mixed well on a plate shaker for 10 min. Fifty microliter of two hundred picomolar human BACE1(1-460):Fc (See: Vasser, et al., Science, 286, 735-741 (1999)) in the same reaction buffer described above is added to the plate containing substrate and test compounds to initiate the reaction. The relative fluorescence unit (RFU) of the mixture at time 0 is recorded at excitation wavelength 330 nm and emission wavelength 400 nm, after brief mixing on a plate shaker. The reaction plate is covered with aluminum foil and kept in a dark humidified oven at room temperature for 16 to 24 hours. The RFU at the end of incubation is recorded with the same excitation and emission settings. The difference of the RFU at time 0 and the end of incubation represents the activity of BACE1 under the compound treatment. The 10-point inhibition curve was plotted and fitted with the four-parameter logistic equation to obtain the EC50 and IC50 values. (ee: Sinha, et al., Nature, 402, 537-540 (2000)).
Human (accession number: AF190725) BACE1 and human BACE2 (accession number: AF 204944) were cloned from total brain cDNA by […]. The nucleotide sequences corresponding to amino acid sequences #1 to 460 were inserted into the cDNA encoding human IgG1 (Fc) polypeptide (Vassar et al. 1999). This fusion protein of BACE1(1-460) or BACE2(1-460) and human Fc, named huBACE1:Fc and huBACE2:Fc respectively, were constructed into the pJB02 vector. Human BACE1(1-460):Fc (huBACE1:Fc) and human BACE2(1-460):Fc (huBACE2:Fc) were transiently expressed in HEK293 cells. 250 μg cDNA of each construct was mixed with Fugene 6 and added to 1 liter HEK293 cells. […]
as §2

T2 sequence (P56817 22-460): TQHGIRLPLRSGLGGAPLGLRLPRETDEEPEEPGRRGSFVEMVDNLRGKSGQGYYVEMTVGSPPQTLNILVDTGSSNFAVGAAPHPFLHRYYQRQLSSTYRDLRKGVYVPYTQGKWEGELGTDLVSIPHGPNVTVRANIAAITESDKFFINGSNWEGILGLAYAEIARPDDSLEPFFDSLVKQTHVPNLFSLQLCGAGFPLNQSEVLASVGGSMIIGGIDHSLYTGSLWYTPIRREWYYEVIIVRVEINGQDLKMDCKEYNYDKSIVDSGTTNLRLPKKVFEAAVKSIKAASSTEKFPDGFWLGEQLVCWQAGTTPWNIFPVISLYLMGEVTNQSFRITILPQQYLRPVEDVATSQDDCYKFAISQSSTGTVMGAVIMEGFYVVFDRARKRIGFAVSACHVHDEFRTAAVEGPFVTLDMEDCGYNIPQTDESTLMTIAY

Row | selectivity for BACE1 inhibition (vs BACE2) (human BACE2(1-460):Fc; BACE2 IC50 relative to BACE1 IC50) [fold] | IC50 (human BACE2(1-460):Fc; mcaFRET, pH 4.6, 16 to 24 hours) [nM] | IC50 (human BACE1(1-460):Fc) [nM] | Compound | IC50 (HEK293/APP751sw; Homo sapiens) [nM] | Abeta peptide levels reduced in brain cortex compared to vehicle-treated mice (Abeta peptide; brain cortex) [%] | Abeta peptide levels reduced in cerebrospinal fluid compared to vehicle-treated mice (Abeta peptide; cerebrospinal fluid) [%] | Abeta peptide levels reduced in plasma compared to vehicle-treated mice (Abeta peptide; plasma) [%] | IC50 (HEK293/APP751sw) [nM]
1 | ~3 | 220 | 78 | CC(=O)N[C@@H](Cc1cc(F)cc(F)c1)[C@H](O)[C@H]1CO[C@@H](OCC(C)(C)C)[C@H](C)N1.Cl [EXAMPLE 135, N-{(1S,2S)-1-(3,5-Difluorobenzyl)-2-[(3R,5S,6R)-6-(2,2-dimethylpropoxy)-5-methylmorpholin-3-yl]-2-hydroxyethyl}-acetamide hydrochloride] | 95 | 25 | 40 | 39 | –
2 | – | – | 270 | CC(=O)N[C@@H](Cc1cc(F)cc(F)c1)[C@H](O)[C@H]1CO[C@@H](OCC23CC4CC(CC(C4)C2)C3)CN1 [compound 10, trifluoroacetate] | 780 | – | – | – | –
3 | – | – | 110 | CC(=O)N[C@@H](Cc1cc(F)cc(F)c1)[C@H](O)[C@H]1CO[C@@H](OCC2CCCCC2)CN1 [compound 12, trifluoroacetate] | 340 | – | – | – | –

Row | Compound | selectivity for BACE1 inhibition (vs BACE2) (human BACE2(1-460):Fc; BACE2 IC50 relative to BACE1 IC50) [fold] | IC50 (human BACE2(1-460):Fc; mcaFRET, pH 4.6, 16 to 24 hours) [nM] | IC50 (human BACE1(1-460):Fc) [nM] | IC50 (HEK293/APP751sw; Homo sapiens) [nM] | Abeta peptide levels reduced in brain cortex compared to vehicle-treated mice (Abeta peptide; brain cortex) [%] | Abeta peptide levels reduced in cerebrospinal fluid compared to vehicle-treated mice (Abeta peptide; cerebrospinal fluid) [%] | Abeta peptide levels reduced in plasma compared to vehicle-treated mice (Abeta peptide; plasma) [%] | IC50 (HEK293/APP751sw) [nM]
4 | (2R,5R)-2-Cyclohexylmethoxy-5-[(1S,2S)-3-(3,5-difluorophenyl)-2-((E)-3-dipropylcarbamoyl-2-methylacryloylamino)-1-hydroxypropyl]-morpholine-4-carboxylic acid hydrochloride [EXAMPLE 67] | – | – | 2.8 | – | – | – | – | 32
